Reference: article PMC6330446, “An integrated characterization of contractile, electrophysiological, and structural cardiotoxicity of Sophora tonkinensis Gapnep. in human pluripotent stem cell-derived cardiomyocytes” (Stem Cell Research & Therapy, 2019)
Entries after “also recorded” stand apart in the source; their conditions may differ. Where two headings read alike, the source gives them in different places.

Columns and labels:
hiPSC-CMs [1] = conditions: for Cell viability (in words): alkaloids 2, 10, 50 μM, aconitine 1 μM
Protocol: (§1) After plating for about 3 days, CMs matured and began to beat. At this time, different compounds were added, and experiments were performed 24 h after treatment. The experiments were grouped as follows: control group (normal medium); matrine, oxymatrine, sophocarpine, and cytisine treatment (2, 10, 50 μM) groups; and aconitine treatment (1 μM) group. The doses of toxicity studies above were determined by the effective therapeutic doses reported and included or exceeded the therapeutic dose.
CMs were incubated in 10% CCK-8 (Dojindo, Kumamoto, Japan) that was diluted in normal culture medium at 37 °C until a visual color conversion occurred. The absorbance of each well was measured using a microplate reader (Spectrafluor, TECAN, Sunrise, Austria) at 450 nm. Three individual experiments were performed. All samples were operated in duplicate.
A 96-well plate was used to seed hiPSC-CMs at a concentration of 5 × 10^4 cells per well. The cultured cells were treated with different concentrations of compounds and were incubated for another 48 h. CMs were digested with trypsin, and a small amount of cell suspension was added into the same amount of trypan blue solution. Countstar Automated Cell Counter IC1000 (Elite Life Sciences, Shanghai, China) was used to count the number of total and living cells. Data were presented as the mean ± SEM, n ≥ 3.

GCaMP hESC-CMs = type: cell-based, human
Protocol: The hESC-CMs in this experiment can express the GCaMP reporter gene by gene editing, and green fluorescence marker can be observed by a fluorescence microscope. The fluorescence intensity is proportional to Ca^2+ concentration. The CMs were seeded into 96-well plates at 5000/well and were administered the same as above. The fluorescence intensities of hESC-CMs were monitored using an IncuCyte™ S3 ZOOM cell imaging system (Essen BioScience, Ann Arbor, MI). Data were presented as the mean ± SEM, n ≥ 3.

hiPSC-CMs [2] = type: cell-based, human
Protocol: Cells were incubated in a maintaining medium containing 10 μM DCFH-DA (Beyotime Biotechnology, Shanghai, China) for 30 min at 37 °C in the dark. The measurement of ROS was performed with IncuCyte™ S3 ZOOM cell imaging system (Essen BioScience, Ann Arbor, MI). TissueQuest 6.0 was used for the quantitative analysis of ROS formation. Data were presented as the mean ± SEM, n ≥ 3.

hiPSC-CMs [3] = test system: hiPSC-CMs
Protocol: as §1
Cell treatment method was the same as above. After reaching the predetermined time, 120 μl of the supernatant of each well was taken for measuring LDH leakage using a commercially available kit (Beyotime Biotechnology, Shanghai, China) following the manufacturer’s instructions. Data were presented as the mean ± SEM, n ≥ 3.

hiPSC-CMs [4] = experiment: SOD, GSH and MDA assay; type: cell-based, human; conditions: 2, 10, 50 μM
Protocol: as §1
Cell treatment was the same as discussed in the “Compound treatment” section. After reaching the predetermined time, the cells were washed with 4 °C physiological saline and later were added into the lysate and appropriately pipetted. After centrifuging at 1.2 × 10^4 rpm for 5 min, the supernatant was obtained to measure the levels of SOD, GSH and MDA using a commercially available kit (Beyotime Biotechnology, Shanghai, China) following the manufacturer's instructions. Data were presented as the mean ± SEM, n ≥ 3.

hiPSC-CMs [5] = experiment: Cardio-NLCS impedance and extracellular field potential (EFP) recording; type: cell-based, human; conditions: for Amplitude (EFP): lowest concentration that demonstrated a significant change compare with the control group / Amplitude (IMP): lowest concentration that demonstrated a significant change compare with the control group / Base impedance: lowest concentration that demonstrated a significant change compare with the control group / Beat rate: lowest concentration that demonstrated a significant change compare with the control group / FPD: lowest concentration that demonstrated a significant change compare with the control group: 2, 10, 50 μM tested, recorded over 24 h; for Base impedance vs the control group (in words) / Contractile amplitude (amplitude of IMP) vs the control group (in words) / FPD value vs the control group (in words) / Potential amplitude (amplitude of EFP) vs the control group (in words) / Beat rate vs the control group (in words): 2, 10, 50 μM, 24 h recording
Protocol: as §1
Cardio-NLCS (Optoprobe Science LTD, Canada) is a turn-key system for efficient impedance and extracellular field potential (EFP) measurements of cell monolayers or tissue preparations. NSP-96 dedicated for Cardio-NLCS should be coated with BD and the wells should not run dry before adding the cell suspension. After seeding, the medium was not exchanged for 12 h. Subsequently, the medium exchange was completed once a day for 2–3 days and every 2 days thereafter. Adding compounds required a complete solution exchange to allow for exact dosing. After the cells were allowed to re-equilibrate for 2–3 h, the 2× concentrated compounds were added by exchanging half of the medium per well. In this experiment, several indexes (base impedance, amplitude, beat rate, and FPD) were recorded at the start of the experiment (control), then every 5 min for 4 h after compound application and every 30 min the same as cell growth period detection, lasting a minimum of 24 h. In this way, both time and concentration-dependent effects could be monitored. Impedance and EFP data analyses were taken every 4 h after compound administrations.

[6] = at the lowest effective concentration
[7] = hiPSC-CMs, 2, 10, 50 μM tested, 24 h

Structure (SMILES)	Cell viability (in words) (hiPSC-CMs [1]; hiPSC-CMs, 24 h)	GSH activity (in words) (hiPSC-CMs [4])	MDA level (in words) (hiPSC-CMs [4])	SOD activity (in words) (hiPSC-CMs [4])	Amplitude (EFP): lowest concentration that demonstrated a significant change compare with the control group (hiPSC-CMs [5]) [µM]	Amplitude (IMP): lowest concentration that demonstrated a significant change compare with the control group (hiPSC-CMs [5]) [µM]	Base impedance: lowest concentration that demonstrated a significant change compare with the control group (hiPSC-CMs [5]) [µM]	Beat rate: lowest concentration that demonstrated a significant change compare with the control group (hiPSC-CMs [5]) [µM]	FPD: lowest concentration that demonstrated a significant change compare with the control group (hiPSC-CMs [5])	Base impedance vs the control group (in words) (hiPSC-CMs [5])	Contractile amplitude (amplitude of IMP) vs the control group (in words) (hiPSC-CMs [5])	FPD value vs the control group (in words) (hiPSC-CMs [5])	Potential amplitude (amplitude of EFP) vs the control group (in words) (hiPSC-CMs [5])	Amplitude (EFP): initial time of significant change compare with the control group (hiPSC-CMs [5]; [6]) [h]	Amplitude (IMP): initial time of significant change compare with the control group (hiPSC-CMs [5]; [6]) [h]	Base impedance: initial time of significant change compare with the control group (hiPSC-CMs [5]; [6]) [h]	[Ca^2+]i: lowest concentration that demonstrated a significant change compare with the control group (GCaMP hESC-CMs; hESC-CMs, 2, 10, 50 μM tested) [µM]	ROS level: lowest concentration that demonstrated a significant change compare with the control group (hiPSC-CMs [2]; hiPSC-CMs, 2, 10, 50 μM tested) [µM]	LDH leakage: lowest concentration that demonstrated a significant change compare with the control group (hiPSC-CMs [3]; hiPSC-CMs, 2, 10, 50 μM tested) [µM]	Beat rate vs the control group (in words) (hiPSC-CMs [5])	further results
O=c1cccc2n1C[C@@H]1CNC[C@H]2C1 [Cytisine, cytisine]	decreased dose-dependently	sharply lowered	rose	sharply lowered	50	10	50	10	No effect	no change except 50 μM cytisine treatment	upward trend	no significant effect	upward trend	16	4	12					Cell viability: lowest concentration that demonstrated a significant change compare with the control group (hiPSC-CMs [1]; human): 50 µM; [Ca^2+]i: lowest concentration that demonstrated a significant change compare with the control group (GCaMP hESC-CMs; human): 50 µM; ROS level: lowest concentration that demonstrated a significant change compare with the control group (hiPSC-CMs [2]; human): 50 µM; LDH leakage: lowest concentration that demonstrated a significant change compare with the control group (hiPSC-CMs [3]; human): 2 µM; Beat rate vs the control group (in words) (hiPSC-CMs [5]; listed as cytisine): slightly lowered; FPD value vs the control group (in words) (hiPSC-CMs [5]; listed as cytisine): remained stable in all groups
O=C1CCC[C@@H]2[C@H]3CCCN4CCC[C@@H](CN12)[C@@H]34 [Matrine, matrine]	decreased dose-dependently	sharply lowered	rose	sharply lowered	50	10	10	2	50 µM	slightly lowered	upward trend	rose in the first half of matrine treatment	upward trend	20	4	16	50	50	2	slightly lowered	Fluorescence intensity of calcium, [Ca^2+]i (in words) (GCaMP hESC-CMs; GCaMP hESC-CMs, high dose of alkaloids (50 μM), aconitine 1 μM): increased significantly; ROS fluorescence / ROS production (in words) (hiPSC-CMs [2]; hiPSC-CMs, high dose of alkaloids (50 μM), aconitine 1 μM): induced ROS production in excess; Beat rate in comparison with the low-dose group (in words) (hiPSC-CMs [5]; higher concentrations 10, 50 μM): an increase in beat rate can be detected; Beat rate (in words) (hiPSC-CMs [5]; low, therapeutically relevant concentration 2 μM): a decrease in the beat rate can be detected
O=C1CCC[C@@H]2[C@H]3CCC[N+]4([O-])CCC[C@@H](CN12)[C@@H]34 (stereo partly shown) [Oxymatrine, oxymatrine]	decreased dose-dependently	sharply lowered	rose	sharply lowered	10			10	No effect	no change, except 10 μM oxymatrine treatment	upward dose-dependent trend	remained stable in all groups	upward dose-dependent trend; also recorded: large fluctuation	12	4				2	slightly lower; also recorded: large fluctuation	Cell viability: lowest concentration that demonstrated a significant change compare with the control group (hiPSC-CMs [1]; [7]): 10 µM; Beat rate: initial time of significant change compare with the control group (hiPSC-CMs [5]; [6]): 4 h
O=C1C=CC[C@@H]2[C@H]3CCCN4CCC[C@@H](CN12)[C@@H]34 [Sophocarpine, sophocarpine]	decreased dose-dependently	sharply lowered	rose	sharply lowered	50	50	50	50	50 µM	no change	upward dose-dependent trend	large differences in the first 12 h and remained stable after 15 h of treatment	no change	16		8	50	10	2		Cell viability: lowest concentration that demonstrated a significant change compare with the control group (hiPSC-CMs [1]; [7]): 10 µM; FPD after high-dose administration (in words) (hiPSC-CMs [5]; 50 μM): immediately increased in a jump; Beat rate: initial time of significant change compare with the control group (hiPSC-CMs [5]; [6]): 4 h; FPD: period of time of significant change compare with the control group (hiPSC-CMs [5]; [6]): 0 to 12 h
